Measured values published in PubChem BioAssay (NCI).
“And” between values parts separate entries of the source, which are not always exact repeats. Equal values may be shown once.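 All cell lines were grown in 96-well plates and treated with compound for 48 hours. At the GI50, growth is halved. TGI marks complete inhibition of growth.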

Experiments:
Assay in all cases: DTP human tumour cell line panel, 48 h
OVCAR-8 ovarian = test system: OVCAR-8 ovarian
BT-549 breast = test system: BT-549 breast
HT29 colon = test system: HT29 colon
EKVX NSCLC = test system: EKVX NSCLC
HCC-2998 colon = test system: HCC-2998 colon
OVCAR-4 ovarian = test system: OVCAR-4 ovarian
NCI/ADR-RES ovarian = test system: NCI/ADR-RES ovarian
COLO 205 colon = test system: COLO 205 colon
UACC-62 melanoma = test system: UACC-62 melanoma
MALME-3M melanoma = test system: MALME-3M melanoma

Row | Structure (SMILES) | GI50 (OVCAR-8 ovarian) | GI50 (BT-549 breast) | GI50 (HT29 colon) | TGI (HT29 colon) | TGI (EKVX NSCLC) | GI50 (HCC-2998 colon) | TGI (HCC-2998 colon) | GI50 (OVCAR-4 ovarian) | TGI (OVCAR-4 ovarian) | GI50 (NCI/ADR-RES ovarian) | GI50 (COLO 205 colon) | TGI (COLO 205 colon) | GI50 (UACC-62 melanoma) | GI50 (MALME-3M melanoma) | TGI (MALME-3M melanoma) | TGI (OVCAR-8 ovarian) | TGI (BT-549 breast) | GI50 (EKVX NSCLC) | TGI (NCI/ADR-RES ovarian) | TGI (UACC-62 melanoma)
1 | Nc1nc(=S)c2[nH]cnc2[nH]1 | 0.374 µM and 0.432 µM and 0.91 µM | 0.716 µM and 1.4 µM and 1.85 µM | 0.544 µM | 121 µM and > 250 µM | > 100 µM and 143 µM and > 250 µM | 0.382 µM and 1.19 µM | 6.93 µM and 16.7 µM and 4.98 µM | 0.573 µM and 4.99 µM | > 100 µM and 97.4 µM and 109 µM | 0.37 µM and 0.421 µM and 0.96 µM | 0.998 µM and 2.35 µM and 2.52 µM | 5.68 µM [middle of 4 runs] | 0.295 µM and 0.376 µM and 1.26 µM | 0.583 µM and 3.13 µM and 1.43 µM | 10.9 µM and 24.7 µM and 29.3 µM |  |  |  |  | 
2 | Cn1ccnc1C(=O)/C=C/c1ccc(C(=O)Nc2c(F)c(F)c(F)c(F)c2F)cc1 | 1.72 µM | 1.43 µM | 1.77 µM | 3.89 µM | 5.85 µM | 1.64 µM | 3.14 µM | 1.53 µM | 4.52 µM | 3.09 µM | 1.82 µM | 3.63 µM | 2.08 µM | 2.1 µM | 5.91 µM | 4.04 µM | 2.75 µM | 2.36 µM | 12.9 µM | 5.17 µM
3 | COc1ccc(/C=C\c2cc(OC)c(OC)c(OC)c2)c(NS(=O)(=O)c2ccc(C(C)(C)C)cc2)c1O | 0.44 µM | 0.467 µM | 3.51 µM | 18.6 µM | 26.3 µM | 1.5 µM | 15.3 µM | 0.188 µM | 32 µM | 0.309 µM | 3.32 µM | 12.5 µM | 0.113 µM | 12.5 µM | 30.4 µM | > 100 µM | 5.22 µM | 0.706 µM | 19.6 µM | 17.5 µM
4 | O=c1[nH]c2ccc([N+](=O)[O-])c(Cl)c2c2ccccc12 |  |  |  | 10.6 µM | 19.9 µM |  | 23.6 µM |  | 24.7 µM |  |  | 26.3 µM |  |  | 27.6 µM | 3.56 µM | 21.2 µM |  | > 100 µM | 15.5 µM
5 | N#CC(NC(=O)CCl)=C(Cl)Cl | 2.21 µM | 1.93 µM | 1.76 µM | 3.44 µM | 3.81 µM | 1.89 µM | 3.41 µM | 1.76 µM | 3.6 µM | 2.95 µM | 1.44 µM | 2.99 µM | 1.34 µM | 1.49 µM | 3.02 µM | 6.08 µM | 4.1 µM | 1.85 µM | 16.8 µM | 2.69 µM
6 | O=NN(CCCl)C(=O)NC1CCCCC1 | 19.2 µM and 70.8 µM |  | 36.6 µM and 64.3 µM | 139 µM and 165 µM | 160 µM and 224 µM | 34.5 µM and 64.6 µM | 123 µM and 101 µM | 20 µM | 90.8 µM and 155 µM and 87.1 µM |  | 20.3 µM and 57.1 µM | 36.7 µM and 102 µM and 87.8 µM | 7.68 µM | 18 µM | 37 µM and 150 µM and 112 µM | 42 µM and 208 µM and 215 µM | 81.7 µM | 92.3 µM | 186 µM | 24.2 µM and 72 µM and 77.3 µM
7 | NC(N)=N/N=C(/c1ccccc1)c1ccccc1F | 4.03 µM | 5.11 µM | 0.628 µM | 11.5 µM | 53 µM | 1.39 µM | 4.73 µM | 1.73 µM | 32 µM | 2.69 µM | 2.16 µM | 7.01 µM | 4.54 µM | 8 µM | 25.6 µM | 25.8 µM | 23.6 µM | 6.89 µM | 9.74 µM | 20.7 µM
8 | CC1=C(CNO)C2=C(C)C3(CC3)[C@@](C)(O)C(=O)C2=C1 | 2.28 µM | 1.24 µM | 2.34 µM | 58.8 µM | 5.98 µM | 1.5 µM | 3.76 µM | 2.1 µM | 7.06 µM | 2.32 µM | 1.09 µM | 3.83 µM | 1.8 µM | 1.81 µM | 3.71 µM | 36 µM | 3.6 µM | 2.22 µM | 7.63 µM | 3.73 µM
9 | CN(C)c1ccc(N=C2C=CC(=C(C#N)C#N)c3ccccc32)cc1 |  |  |  | 10.4 µM | 19.1 µM |  | 0.63 µM |  | 6.13 µM |  |  | 0.199 µM |  |  | 17.1 µM | 1.75 µM | 5.12 µM |  | 2.34 µM | 3.32 µM
10 | N#CCC1(n2cc(-c3ncnc4[nH]ccc34)cn2)CN(C2CCN(C(=O)c3ccnc(C(F)(F)F)c3F)CC2)C1 | > 100 µM | 37.5 µM | > 100 µM | > 100 µM | > 100 µM | > 100 µM | > 100 µM | > 100 µM | > 100 µM | > 100 µM | 57.8 µM | > 100 µM | 76.4 µM | > 100 µM | > 100 µM | > 100 µM | > 100 µM | > 100 µM | > 100 µM | > 100 µM
11 | O=C(Oc1ccc2c(c1)CN(Cc1ccccc1)CO2)c1ccccc1 |  |  |  | 40.8 µM | 33.4 µM |  | 28.2 µM |  | 32.8 µM |  |  | 31 µM |  |  | 33.9 µM | 32.9 µM | 34.1 µM |  | 59.3 µM | 30.5 µM
12 | COc1c(O)c2c3c(c1OC)-c1ccccc1CC3N(S(=O)(=O)c1ccc(C)cc1)CC2 (stereo not drawn) | 1.92 µM | 3.46 µM | 9.34 µM | 21 µM | > 50 µM | 4.01 µM | 34.1 µM | 3.7 µM | > 50 µM | 1.49 µM | 19.2 µM | > 50 µM | 2.41 µM | 7.88 µM | > 50 µM | > 50 µM | 42.2 µM | 4.04 µM | 4.54 µM | > 50 µM
13 | CCCCCCCCCCCCOC1C(C(CC(=O)N2CCN(Cc3ccc4c(c3)OCO4)CC2)NS(=O)(=O)c2cc(Cl)cc(Cl)c2)OC2OC(C)(C)OC21 (stereo not drawn) | 20.6 µM | 27.9 µM | 4.82 µM | 31.1 µM | > 100 µM | 5.54 µM | > 51.4 µM | 18.1 µM | > 100 µM | > 100 µM | 11.7 µM | > 78.3 µM | > 63.3 µM | > 93.1 µM | > 100 µM | > 100 µM | > 100 µM | 19.1 µM | > 100 µM | > 100 µM
14 | CNCc1ccc(-c2[nH]c3cc(F)cc4c3c2CCNC4=O)cc1 | 17.4 µM | 17.4 µM | 19.5 µM | 76.3 µM | > 83.1 µM | 16.5 µM | 35.6 µM | 13.5 µM | 47.8 µM | 69.2 µM | 11.7 µM | 26.4 µM | 15 µM | 17 µM | 36.1 µM | 77.5 µM | 36.4 µM | 26.1 µM | > 100 µM | 29.8 µM
15 | C=C(Cn1c2ccccc2c(=O)c2ccccc21)c1ccc(C(=O)Nc2ccccc2N)cc1 | > 100 µM | 4.07 µM | 2.52 µM | > 33.6 µM | > 100 µM | 3.67 µM | > 61.2 µM | 0.0786 µM | 6.06 µM | 2.31 µM | 16.2 µM | > 100 µM | > 100 µM | 6.45 µM | > 100 µM | > 100 µM | > 100 µM | > 21.5 µM | > 100 µM | > 100 µM
16 | CC1=C2[C@@H](CC1)[C@]1(C)O[C@@](C3CC3)(C[C@H]1OC(=O)CO)[C@H]2OC(=O)/C=C/c1ccccc1 | 0.0834 µM | 0.148 µM | 16.1 µM | 32.2 µM | 25.1 µM | 16.9 µM | 33.2 µM | 14.5 µM | 29.2 µM | 0.103 µM | 17.9 µM | 35.7 µM | 14.3 µM | 15.6 µM | 32.8 µM | 15.4 µM | 7.74 µM | 11.5 µM | 14.1 µM | 29.4 µM
17 | COc1cc(OC)cc(-c2ccc(-c3ccc(C(=N)N)cn3)s2)c1 | 2.3 µM | 10.5 µM | 2.11 µM | 4.89 µM | 7.17 µM | 1.84 µM | 3.48 µM | 1.9 µM | 3.64 µM | 3.27 µM | 2.11 µM | 4.62 µM | 1.85 µM | 1.87 µM | 3.56 µM | 5.3 µM | 26.4 µM | 2.58 µM | 11.6 µM | 3.54 µM
18 | C#Cc1cccc(NC(=O)C2CCCN(C(=O)CCl)C2)c1 (stereo not drawn) | 61.8 µM | 38.6 µM | > 82.5 µM | > 82.5 µM | > 82.5 µM | > 82.5 µM | > 82.5 µM | 19.5 µM | 52.8 µM | > 82.5 µM | 21.5 µM | 45 µM | > 82.5 µM | 18.1 µM | 78.6 µM | > 82.5 µM | > 82.5 µM | > 82.5 µM | > 82.5 µM | > 82.5 µM
19 | CNCc1cccc2c1OCCOCCOCCC(C)S(=O)(=O)c1ccc(cc1)-c1cnc(N)c(n1)C(=O)N2 (stereo not drawn) | 1.78 µM | 1.53 µM | 1.44 µM | 8.99 µM | 18.6 µM | 4.53 µM | 17.2 µM | 1.32 µM | 4.32 µM | 5.31 µM | 0.564 µM | 5.25 µM | 1.67 µM | 1.59 µM | 3.13 µM | 7.9 µM | 5.23 µM | 4.46 µM | 29.1 µM | 3.3 µM
20 | O=c1nc2[nH]c3c(-c4n[nH]c(=O)[nH]c4=O)cccc3c2n[nH]1 | > 100 µM | > 100 µM | > 100 µM | > 100 µM | > 100 µM | > 100 µM | > 100 µM | > 100 µM | > 100 µM | > 100 µM | > 100 µM | > 100 µM | > 100 µM | > 100 µM | > 100 µM | > 100 µM | > 100 µM | > 100 µM | > 100 µM | > 100 µM
